Consider 28 molecules from patent US9371320B2, “Heterocyclic compound” (TAKEDA PHARMACEUTICAL COMPANY LIMITED, priority 2012, dated 2016).

For one test, the target named is T1, JAK1 (Homo sapiens, UniProt P23458).
T1 construct: purchased Invitrogen
Put plainly: JAK1 enzyme inhibition test (LANCE method). As to conditions: for inhibition at 1 µM: read-out: Inhibitory rate (%) JAK1 1 μM; for inhibition at 10 µM: read-out: Inhibitory rate (%) JAK1 10 μM. Format: biochemical. Summed up: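 TR-FRET (LANCE) kinase assay using JAK1 at 187.5 ng/mL, ULight-JAK1 peptide at 300 nM and ATP at 150 μM, given as solution concentrations before mixing. Buffer was 50 mM HEPES pH 7.5 with 10 mM MgCl2 and 2 mM DTT, and the reaction ran 1 h at room temperature. Eu anti-phosphotyrosine signal at 665 nm was expressed relative to a no-enzyme well, taken as 100% inhibition.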

The target in the next test is T2, Tyk2 (Homo sapiens, UniProt P29597).
T2 construct: purchased Invitrogen
Put plainly: Tyk2 enzyme inhibition test (LANCE method). Format: biochemical. To be noted: for inhibition at 1 µM: read-out: Inhibitory rate (%) Tyk2 1 μM; for inhibition at 10 µM: test compound 10 μM, read-out: Inhibitory rate (%) Tyk2 10 μM. A digest of the protocol: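 Recombinant Tyk2 (375 ng/mL stock) with ULight-JAK1 peptide (300 nM stock) and ATP (30 μM stock) in HEPES pH 7.5/MgCl2/EGTA/DTT buffer, 1 h at room temperature. Stopped with EDTA plus Eu-anti-phosphotyrosine antibody; TR-FRET read at 665 nm after 1 h. No-enzyme wells define 100% inhibition.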
A general note: Time-resolved FRET reads energy transfer from a long-lived donor to a nearby acceptor.

Where [1] appears, read: test compound 10 μM (Ex. 182-220), beside Tyk2 1 μM.

Where two headings read alike, the source gives them in different places.

T2 sequence (P29597 whole entry): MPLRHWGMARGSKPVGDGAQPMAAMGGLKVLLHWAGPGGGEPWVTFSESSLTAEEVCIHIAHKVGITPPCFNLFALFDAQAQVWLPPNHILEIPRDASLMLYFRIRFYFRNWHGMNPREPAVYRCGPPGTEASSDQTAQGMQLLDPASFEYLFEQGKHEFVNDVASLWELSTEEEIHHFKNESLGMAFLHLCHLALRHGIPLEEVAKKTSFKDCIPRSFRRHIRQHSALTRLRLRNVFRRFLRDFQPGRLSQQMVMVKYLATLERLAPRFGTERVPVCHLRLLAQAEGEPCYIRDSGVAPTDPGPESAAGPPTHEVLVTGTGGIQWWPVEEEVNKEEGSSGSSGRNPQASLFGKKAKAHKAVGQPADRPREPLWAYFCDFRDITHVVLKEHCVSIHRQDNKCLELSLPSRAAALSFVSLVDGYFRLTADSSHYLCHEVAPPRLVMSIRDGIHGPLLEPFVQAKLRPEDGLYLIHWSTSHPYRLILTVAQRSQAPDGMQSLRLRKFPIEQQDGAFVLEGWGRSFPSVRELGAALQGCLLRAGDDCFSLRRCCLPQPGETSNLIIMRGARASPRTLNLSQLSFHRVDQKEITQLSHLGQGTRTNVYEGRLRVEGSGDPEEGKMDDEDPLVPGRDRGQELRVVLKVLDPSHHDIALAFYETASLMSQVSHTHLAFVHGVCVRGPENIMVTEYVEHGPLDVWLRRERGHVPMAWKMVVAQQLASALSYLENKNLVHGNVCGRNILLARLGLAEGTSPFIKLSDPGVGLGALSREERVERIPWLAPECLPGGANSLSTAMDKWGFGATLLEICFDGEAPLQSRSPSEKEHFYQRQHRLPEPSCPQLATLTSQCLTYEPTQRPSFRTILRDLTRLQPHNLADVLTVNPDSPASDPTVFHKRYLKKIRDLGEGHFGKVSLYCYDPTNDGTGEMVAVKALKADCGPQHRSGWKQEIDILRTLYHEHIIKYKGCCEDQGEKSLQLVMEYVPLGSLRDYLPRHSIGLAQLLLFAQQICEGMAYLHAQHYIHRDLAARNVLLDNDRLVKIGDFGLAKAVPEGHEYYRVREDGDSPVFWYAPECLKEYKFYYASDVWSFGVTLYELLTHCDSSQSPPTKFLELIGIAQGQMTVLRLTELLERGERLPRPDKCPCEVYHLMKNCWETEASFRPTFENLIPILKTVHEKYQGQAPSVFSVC
T1 sequence (P23458 whole entry): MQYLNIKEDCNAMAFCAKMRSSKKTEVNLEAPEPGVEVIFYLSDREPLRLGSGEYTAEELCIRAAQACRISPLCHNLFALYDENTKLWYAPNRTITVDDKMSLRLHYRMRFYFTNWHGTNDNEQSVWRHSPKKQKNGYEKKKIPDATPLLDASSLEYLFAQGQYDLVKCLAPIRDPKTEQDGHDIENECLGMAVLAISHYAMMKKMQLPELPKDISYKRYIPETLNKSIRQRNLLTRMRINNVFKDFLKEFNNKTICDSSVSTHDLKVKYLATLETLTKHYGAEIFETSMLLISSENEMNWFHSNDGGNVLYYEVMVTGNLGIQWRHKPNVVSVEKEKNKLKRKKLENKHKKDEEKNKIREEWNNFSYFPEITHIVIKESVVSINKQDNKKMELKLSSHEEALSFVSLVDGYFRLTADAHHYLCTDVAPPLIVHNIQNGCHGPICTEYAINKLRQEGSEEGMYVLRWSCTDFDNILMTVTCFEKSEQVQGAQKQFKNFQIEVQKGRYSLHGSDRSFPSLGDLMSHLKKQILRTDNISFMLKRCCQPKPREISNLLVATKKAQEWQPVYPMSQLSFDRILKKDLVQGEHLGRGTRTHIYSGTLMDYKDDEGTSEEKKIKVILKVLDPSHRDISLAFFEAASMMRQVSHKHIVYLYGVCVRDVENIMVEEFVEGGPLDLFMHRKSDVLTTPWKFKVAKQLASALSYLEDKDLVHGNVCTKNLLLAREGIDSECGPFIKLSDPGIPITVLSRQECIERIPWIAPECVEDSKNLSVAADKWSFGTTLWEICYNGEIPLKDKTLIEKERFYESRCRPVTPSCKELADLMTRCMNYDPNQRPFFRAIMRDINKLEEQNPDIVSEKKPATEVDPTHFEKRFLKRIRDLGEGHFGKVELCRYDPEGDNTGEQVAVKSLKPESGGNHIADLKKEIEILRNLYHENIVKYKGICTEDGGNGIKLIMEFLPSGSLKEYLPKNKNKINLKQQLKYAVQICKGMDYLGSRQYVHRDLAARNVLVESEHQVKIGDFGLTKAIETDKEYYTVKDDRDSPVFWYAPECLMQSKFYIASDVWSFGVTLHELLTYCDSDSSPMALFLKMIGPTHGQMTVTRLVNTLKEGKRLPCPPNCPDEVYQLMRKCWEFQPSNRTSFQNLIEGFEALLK

`CCNC(=O)c1cc(-c2cn(C3CCCC3)c3c(C#N)c[nH]c(=O)c23)cs1` [Example 122, 4-(7-cyano-1-cyclopentyl-4-oxo-4,5-dihydro-1H-pyrrolo[3,2-c]pyridin-3-yl)-N-ethylthiophene-2-carboxamide]: the inhibition at 1 µM on JAK1 (test compound 1 μM) was found to be 99%; on Tyk2 (test compound 1 μM), 100%.
As to `O=c1[nH]ccc2c1c(-c1ccccc1C(F)(F)F)nn2C1CCCC1` [Example 53, 1-cyclopentyl-3-(2-(trifluoromethyl)phenyl)-1,5-dihydro-4H-pyrazolo[4,3-c]pyridin-4-one], the inhibition at 10 µM on JAK1 (test compound 10 μM) was determined as 10%; at Tyk2, 28%.
In the case of `Cn1cc(-c2nn(-c3c(F)cccc3F)c3c(Cl)c[nH]c(=O)c23)cn1` [Example 189, 7-chloro-1-(2,6-difluorophenyl)-3-(1-methyl-1H-pyrazoI-4-yl)-1,5-dihydro-4H-pyrazolo[4,3-c]pyridin-4-one], the inhibition at 10 µM at JAK1 (setting [1]) is 92%. In addition, the inhibition at 1 µM on Tyk2 (test compound 1 μM) is 100%.
Regarding `O=C(CO)N1CCN(c2ccc(-c3nn(-c4c(F)cccc4F)c4cc[nH]c(=O)c34)cc2)CC1` [Example 312, 1-(2,6-difluorophenyl)-3-(4-(4-glycoloylpiperazin-1-yl)phenyl)-1,5-dihydro-4H-pyrazolo[4,3-c]pyridin-4-one], the figures for the inhibition at 1 µM on JAK1 (test compound 1 μM) and on Tyk2 (test compound 1 μM) were 94% and 99%, respectively.
Turning to `NS(=O)(=O)c1ccc(-c2nn(-c3ccccc3)c3cc[nH]c(=O)c23)cc1` [Example 30, 4-(4-oxo-1-phenyl-4,5-dihydro-1H-pyrazolo[4,3-c]pyridin-3-yl)benzenesulfonamide], the figures for the inhibition at 1 µM at JAK1 (test compound 1 μM) and at Tyk2 (test compound 1 μM) were 94% and 92%, respectively.
For `O=c1[nH]ccc2c1c(-c1cccc(F)c1)nn2C1CCCC1` [Example 55, 1-cyclopentyl-3-(3-fluorophenyl)-1,5-dihydro-4H-pyrazolo[4,3-c]pyridin-4-one], the results for the inhibition at 1 µM at JAK1 (test compound 1 μM) and on Tyk2 (test compound 1 μM) were 78% and 85%, respectively.
In the case of `CC1(O)CCC(n2nc(-c3ccc(S(N)(=O)=O)cc3)c3c(=O)[nH]ccc32)CC1` (centres unmarked) [Example 196, 4-(1-(4-hydroxy-4-methylcyclohexyl)-4-oxo-4,5-dihydro-1H-pyrazolo[4,3-c]pyridin-3-yl)benzenesulfonamide], at JAK1 (setting [1]), the inhibition at 10 µM stood at 100%. The inhibition at 1 µM on Tyk2 (test compound 1 μM) came out at 100%.
As to `O=c1[nH]ccc2c1c(-c1cccc(CN3CCC(F)(F)C3)c1)nn2-c1c(F)cccc1F` [Example 261, 1-(2,6-difluorophenyl)-3-(3-((3,3-difluoropyrrolidin-1-yl)methyl)phenyl)-1,5-dihydro-4H-pyrazolo[4,3-c]pyridin-4-one], the inhibition at 1 µM on JAK1 (test compound 1 μM) was determined as 41%; on Tyk2 (test compound 1 μM) it was 94%.
For the molecule `NC(=O)c1ccc(-c2nn(-c3c(F)cccc3F)c3cc[nH]c(=O)c23)cc1` [Example 230, 4-(1-(2,6-difluorophenyl)-4-oxo-4,5-dihydro-1H-pyrazolo[4,3-c]pyridin-3-yl)benzamide], the inhibition at 1 µM was determined as 92% at JAK1 (test compound 1 μM) and 99% at Tyk2 (test compound 1 μM).
Take `NS(=O)(=O)c1ccc(-c2nn(C3CCCOC3)c3cc[nH]c(=O)c23)cc1` (centres unmarked) [Example 28, 4-(4-oxo-1-(tetrahydro-2H-pyran-3-yl)-4,5-dihydro-1H-pyrazolo[4,3-c]pyridin-3-yl)benzenesulfonamide]: the “Inhibitory rate (%) JAK1 1 μM” value at JAK1 (test compound 1 μM) was 99%. For the same molecule, at Tyk2 (test compound 1 μM), the “Inhibitory rate (%) Tyk2 1 μM” value is reported as 97%.
On to `NS(=O)(=O)c1ccc(Cn2nc(-c3ccccc3)c3cc[nH]c(=O)c32)cc1` [Example 19, 4-((7-oxo-3-phenyl-6,7-dihydro-1H-pyrazolo[3,4-c]pyridin-1-yl)methyl)benzenesulfonamide], for which the results for the inhibition at 10 µM on JAK1 (test compound 10 μM) and at Tyk2 were 44% and 27%, respectively.
For the molecule `NC(=O)c1cc(-c2nn([C@H]3CC[C@H](N)CC3)c3cc[nH]c(=O)c23)cs1` [Example 299, 4-(1-(trans-4-aminocyclohexyl)-4-oxo-4,5-dihydro-1H-pyrazolo[4,3-c]pyridin-3-yl)thiophene-2-carboxamide], the inhibition at 1 µM on JAK1 (test compound 1 μM) and at Tyk2 (test compound 1 μM) was 99% in each case.
For the molecule `CCOC(=O)c1ccc(-c2nn(-c3c(F)cccc3F)c3cc[nH]c(=O)c23)cn1` [Example 259, ethyl 5-(1-(2,6-difluorophenyl)-4-oxo-4,5-dihydro-1H-pyrazolo[4,3-c]pyridin-3-yl)pyridine-2-carboxylate], the results for the inhibition at 1 µM on JAK1 (test compound 1 μM) and on Tyk2 (test compound 1 μM) were 59% and 81%, respectively.
In the case of `CC(C)(C)n1nc(NC(=O)c2ccccc2)c2c(=O)[nH]ccc21` [Example 265, N-(1-tert-butyl-4-oxo-4,5-dihydro-1H-pyrazolo[4,3-c]pyridin-3-yl)benzamide], the results for the inhibition at 10 µM on JAK1 (test compound 10 μM) and at Tyk2 were 21% and 24%, respectively.
For the molecule `O=c1[nH]ccc2c1c(-c1ccc(N3CCOCC3)cc1)nn2C1CCC(F)(F)CC1` [Example 266, 1-(4,4-difluorocyclohexyl)-3-(4-(morpholin-4-yl)phenyl)-1,5-dihydro-4H-pyrazolo[4,3-c]pyridin-4-one], the inhibition at 1 µM at JAK1 (test compound 1 μM) came out at 85%; at Tyk2 (test compound 1 μM) it was 91%.
For the molecule `NS(=O)(=O)c1ccc(-c2nn(C3CCCCC3)c3cc[nH]c(=O)c23)cc1` [Example 6, 4-(1-cyclohexyl-4-oxo-4,5-dihydro-1H-pyrazolo[4,3-c]pyridin-3-yl)benzenesulfonamide], the inhibition at 1 µM at JAK1 (test compound 1 μM) worked out at 98%; on Tyk2 (test compound 1 μM) it was 99%.
`NC(=O)c1cc(-c2nn(C3CCCC3)c3cc[nH]c(=O)c23)cs1` [Example 13, 4-(1-cyclopentyl-4-oxo-4,5-dihydro-1H-pyrazolo[4,3-c]pyridin-3-yl)thiophene-2-carboxamide]: the inhibition at 1 µM on JAK1 (test compound 1 μM) and at Tyk2 (test compound 1 μM) was 99% each time.
As for `CNC(=O)c1ccc(-c2nn(-c3c(F)cccc3F)c3c(Cl)c[nH]c(=O)c23)cc1` [Example 194, 4-(7-chloro-1-(2,6-difluorophenyl)-4-oxo-4,5-dihydro-1H-pyrazolo[4,3-c]pyridin-3-yl)-N-methylbenzamide], the inhibition at 10 µM at JAK1 (setting [1]) was found to be 67%. For the same molecule, on Tyk2 (test compound 1 μM), the inhibition at 1 µM stood at 100%.
Turning to `N#Cc1c[nH]c(=O)c2c(-c3cccc(C(N)=O)c3)cn(C3CCCC3)c12` [Example 89, 3-(7-cyano-1-cyclopentyl-4-oxo-4,5-dihydro-1H-pyrrolo[3,2-c]pyridin-3-yl)benzamide], the inhibition at 1 µM on JAK1 (test compound 1 μM) stood at 64%; at Tyk2 (test compound 1 μM), 94%.
`O=c1[nH]ccc2c1c(-c1cccc(C(F)(F)F)c1)nn2C1CCCC1` [Example 52, 1-cyclopentyl-3-(3-(trifluoromethyl)phenyl)-1,5-dihydro-4H-pyrazolo[4,3-c]pyridin-4-one]: the figures for the inhibition at 1 µM at JAK1 (test compound 1 μM) and at Tyk2 (test compound 1 μM) were 43% and 46%, respectively.
`O=C1CCCN1c1ccc(-c2nn(-c3c(F)cccc3F)c3cc[nH]c(=O)c23)cc1` [Example 292, 1-(2,6-difluorophenyl)-3-(4-(2-oxopyrrolidin-1-yl)phenyl)-1,5-dihydro-4H-pyrazolo[4,3-c]pyridin-4-one]: the inhibition at 1 µM worked out at 97% at JAK1 (test compound 1 μM) and 99% at Tyk2 (test compound 1 μM).
The corresponding values for `CNC(=O)c1ccc(-c2nn(-c3c(F)cccc3F)c3cc[nH]c(=O)c23)c(F)c1` [Example 294, 4-(1-(2,6-difluorophenyl)-4-oxo-4,5-dihydro-1H-pyrazolo[4,3-c]pyridin-3-yl)-3-fluoro-N-methylbenzamide] are 35% and 92%.
As for `O=C(NN1CCOCC1)c1cc(-c2nn(-c3c(F)cccc3F)c3c(Cl)c[nH]c(=O)c23)cs1` [Example 193, 4-(7-chloro-1-(2,6-difluorophenyl)-4-oxo-4,5-dihydro-1H-pyrazolo[4,3-c]pyridin-3-yl)-N-(morpholin-4-yl)thiophene-2-carboxamide], the inhibition at 10 µM at JAK1 (setting [1]) turned out to be 99%. The inhibition at 1 µM at Tyk2 (test compound 1 μM) is 100%.
With `CNC(=O)c1ccc(-c2nn(-c3c(F)cccc3F)c3c(Cl)c[nH]c(=O)c23)cc1F` [Example 216, 4-(7-chloro-1-(2,6-difluorophenyl)-4-oxo-4,5-dihydro-1H-pyrazolo[4,3-c]pyridin-3-yl)-2-fluoro-N-methylbenzamide], the inhibition at 10 µM on JAK1 (setting [1]) was 27%. In addition, the inhibition at 1 µM at Tyk2 (test compound 1 μM) is 97%.
Take `CNC(=O)c1cc(-c2cn(C3CCCC3)c3c(C#N)c[nH]c(=O)c23)cs1` [Example 108, 4-(7-cyano-1-cyclopentyl-4-oxo-4,5-dihydro-1H-pyrrolo[3,2-c]pyridin-3-yl)-N-methylthiophene-2-carboxamide]: the inhibition at 1 µM stood at 99% at JAK1 (test compound 1 μM) and 100% at Tyk2 (test compound 1 μM).
On to `NC(=O)c1cc(-c2nn(C3CCCC3)c3c(Cl)c[nH]c(=O)c23)cs1` [Example 296, 4-(7-chloro-1-cyclopentyl-4-oxo-4,5-dihydro-1H-pyrazolo[4,3-c]pyridin-3-yl)thiophene-2-carboxamide], for which the values for the inhibition at 1 µM at JAK1 (test compound 1 μM) and at Tyk2 (test compound 1 μM) were 90% and 96%, respectively.
For `O=C(O)c1cc(-c2nn(-c3c(F)cccc3F)c3cc[nH]c(=O)c23)cs1` [Example 37, 4-(1-(2,6-difluorophenyl)-4-oxo-4,5-dihydro-1H-pyrazolo[4,3-c]pyridin-3-yl)thiophene-2-carboxylic acid], the inhibition at 1 µM at JAK1 (test compound 1 μM) and at Tyk2 (test compound 1 μM) was 99% throughout.
As to `O=c1[nH]ccc2c1c(-c1ccc3c(c1)OCO3)nn2C1CCCC1` [Example 49, 3-(1,3-benzodioxol-5-yl)-1-cyclopentyl-1,5-dihydro-4H-pyrazolo[4,3-c]pyridin-4-one], the inhibition at 1 µM on JAK1 (test compound 1 μM) is 85%; on Tyk2 (test compound 1 μM), 89%.
